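Method: 48-hour compound exposure of cells in 96-well plates, five concentrations, linear interpolation of endpoints. GI50 is the concentration that inhibits growth by half. The concentration for full growth arrest is given as TGI.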
Columns and labels:
Experiment in all cases: DTP human tumour cell line panel, 48 h
[1] = tested on: A549 NSCLC
[2] = tested on: COLO 205 colon
[3] = tested on: U251 CNS
[4] = tested on: SN12C renal
[5] = tested on: RXF 393 renal
[6] = tested on: SW-620 colon
[7] = tested on: LOX IMVI melanoma
[8] = tested on: OVCAR-3 ovarian
[9] = tested on: SR leukemia
[10] = tested on: K-562 leukemia
[11] = tested on: SF-295 CNS
[12] = tested on: HS 578T breast
[13] = tested on: CCRF-CEM leukemia
[14] = tested on: KM12 colon
[15] = tested on: RPMI-8226 leukemia
[16] = tested on: TK-10 renal
[17] = tested on: UACC-257 melanoma
[18] = tested on: UO-31 renal
[19] = tested on: NCI-H23 lung
[20] = tested on: SF-539 CNS
[21] = tested on: NCI/ADR-RES ovarian
[22] = tested on: IGROV1 ovarian
[23] = tested on: SK-MEL-2 melanoma
[24] = tested on: HT29 colon
[25] = tested on: PC-3 prostate
[26] = tested on: HCT-15 colon
[27] = tested on: MDA-MB-435
[28] = tested on: HOP-62 NSCLC
[29] = tested on: MDA-MB-231 breast
[30] = tested on: HL-60(TB) leukemia
[31] = tested on: UACC-62 melanoma
[32] = tested on: MALME-3M melanoma
[33] = tested on: SF-268 CNS
[34] = tested on: NCI-H522 lung
[35] = tested on: MCF7 breast
[36] = tested on: EKVX NSCLC
[37] = tested on: SK-MEL-28 melanoma
[38] = tested on: BT-549 breast
[39] = tested on: HCC-2998 colon
[40] = tested on: 786-0 renal
[41] = tested on: ACHN renal
[42] = tested on: NCI-H460 lung
[43] = tested on: DU-145 prostate
[44] = tested on: SNB-19 CNS
[45] = tested on: OVCAR-8 ovarian
[46] = tested on: OVCAR-5 ovarian
[47] = tested on: SK-MEL-5 melanoma
[48] = tested on: HOP-92 NSCLC
[49] = tested on: M14 melanoma
[50] = tested on: CAKI-1 renal
[51] = tested on: HCT-116 colon
[52] = tested on: NCI-H226 lung
[53] = tested on: A498 renal
[54] = tested on: OVCAR-4 ovarian
[55] = tested on: MOLT-4 leukemia
[56] = tested on: SNB-75 CNS
[57] = tested on: T-47D breast
[58] = tested on: SK-OV-3 ovarian

CC(C)c1cc(C(C)C)c(Cl)c(Cl)c1O (tested in a mixture with another compound)
TGI [1]: > 100000 nM | TGI [2]: 39800 nM | TGI [3]: > 100000 nM | TGI [4]: 54400 nM | TGI [5]: 32500 nM | TGI [6]: 82100 nM | TGI [7]: > 100000 nM | TGI [8]: 60100 nM | TGI [9]: 63400 nM | TGI [10]: 37900 nM | TGI [11]: 40900 nM | TGI [12]: 38500 nM | TGI [13]: > 100000 nM | TGI [14]: 58100 nM | TGI [15]: > 100000 nM | TGI [16]: 54300 nM | TGI [17]: 39300 nM | TGI [18]: 57700 nM | TGI [19]: > 100000 nM | TGI [20]: 49000 nM | TGI [21]: > 100000 nM | TGI [22]: 81100 nM | TGI [23]: 46500 nM | TGI [24]: 58800 nM | TGI [25]: 40700 nM | TGI [26]: > 100000 nM | TGI [27]: 46100 nM | TGI [28]: > 100000 nM | TGI [29]: 46000 nM | TGI [30]: 36000 nM | TGI [31]: 44000 nM | TGI [32]: 52900 nM | TGI [33]: 42400 nM | TGI [34]: 35800 nM | TGI [35]: 54600 nM | TGI [36]: 53700 nM | TGI [37]: 42400 nM | TGI [38]: 40100 nM | TGI [39]: 64500 nM | TGI [40]: > 100000 nM | TGI [41]: 57600 nM | TGI [42]: > 100000 nM | TGI [43]: > 100000 nM | TGI [44]: 42800 nM | TGI [45]: 76100 nM | TGI [46]: > 100000 nM | TGI [47]: 24300 nM | TGI [48]: 27900 nM | TGI [49]: > 100000 nM | TGI [50]: 47000 nM | TGI [51]: > 100000 nM

CCN(CC)CCCNc1c2ccc(Cl)cc2nc2ccc(OC)cc12
GI50 [1]: 58.2 nM | TGI [1]: 5830 nM | GI50 [2]: 39.8 nM | TGI [2]: 2010 nM | GI50 [4]: 57.5 nM | TGI [4]: 3690 nM | GI50 [5]: 40.3 nM | TGI [5]: 2150 nM | GI50 [6]: 40.1 nM | TGI [6]: 2360 nM | GI50 [7]: 34.2 nM | TGI [7]: 1930 nM | GI50 [9]: 29 nM | TGI [9]: 3670 nM | GI50 [10]: 30.8 nM | TGI [10]: 6080 nM | GI50 [12]: 2050 nM | TGI [12]: 5540 nM | GI50 [52]: 1840 nM | TGI [52]: 4880 nM | GI50 [13]: 47.3 nM | TGI [13]: 3670 nM | GI50 [14]: 54.1 nM | TGI [14]: 4450 nM | GI50 [15]: 42 nM | TGI [15]: 2830 nM | GI50 [16]: 1690 nM | TGI [16]: 4830 nM | GI50 [17]: 1830 nM | TGI [17]: 3410 nM | GI50 [18]: 1630 nM | TGI [18]: 4830 nM | GI50 [23]: 1690 nM | TGI [23]: 3310 nM | GI50 [24]: 33 nM | TGI [24]: 1560 nM | GI50 [53]: 1510 nM | TGI [53]: 2860 nM | GI50 [26]: 34.5 nM | TGI [26]: 2510 nM | GI50 [27]: 61.4 nM | TGI [27]: 2040 nM | GI50 [31]: 1840 nM | TGI [31]: 3550 nM | GI50 [32]: 1600 nM | TGI [32]: 3380 nM | GI50 [33]: 61.8 nM | TGI [33]: 3530 nM | GI50 [35]: 37.7 nM | TGI [35]: 3160 nM | GI50 [38]: 1780 nM | TGI [38]: 3630 nM | GI50 [40]: 44.9 nM | TGI [40]: 2150 nM | GI50 [42]: 32.6 nM | TGI [42]: 1340 nM | GI50 [43]: 47.6 nM | TGI [43]: 4080 nM | GI50 [44]: 58.7 nM | TGI [44]: 4570 nM | GI50 [45]: 55.2 nM | TGI [45]: 3440 nM | GI50 [47]: 1640 nM | TGI [47]: 3020 nM | GI50 [48]: 1410 nM | TGI [48]: 3620 nM | GI50 [54]: 30.4 nM | TGI [54]: 2770 nM | GI50 [51]: 30.7 nM | TGI [51]: 1640 nM | GI50 [55]: 33.8 nM | TGI [55]: 2910 nM

O=C1C2C(C(=O)N1CC[Se][Se]CCN1C(=O)C3C(C1=O)[C@H]1C=C[C@@H]3C1)[C@H]1C=C[C@@H]2C1 (stereo partly drawn)
GI50 [1]: 447 nM | TGI [1]: 4720 nM | GI50 [2]: 2120 nM | TGI [2]: 4980 nM | GI50 [3]: 597 nM | TGI [3]: 3040 nM | GI50 [5]: 338 nM | TGI [5]: 1110 nM | GI50 [6]: 2620 nM | TGI [6]: 7590 nM | GI50 [7]: 167 nM | TGI [7]: 327 nM | GI50 [8]: 852 nM | TGI [8]: 2940 nM | GI50 [9]: 1100 nM | TGI [9]: > 26600 nM | GI50 [10]: 1630 nM | TGI [10]: > 38500 nM | GI50 [11]: 1110 nM | TGI [11]: 2420 nM | GI50 [12]: 266 nM | TGI [12]: 1160 nM | GI50 [52]: 219 nM | TGI [52]: 495 nM | GI50 [13]: 566 nM | TGI [13]: 4020 nM | GI50 [14]: 1350 nM | TGI [14]: 10200 nM | GI50 [15]: 2190 nM | TGI [15]: 5170 nM | GI50 [16]: 303 nM | TGI [16]: 994 nM | GI50 [56]: 171 nM | TGI [56]: 488 nM | GI50 [17]: 452 nM | TGI [17]: 3140 nM | GI50 [18]: 247 nM | TGI [18]: 964 nM | GI50 [19]: 802 nM | TGI [19]: 4480 nM | GI50 [20]: 223 nM | TGI [20]: 467 nM | GI50 [21]: 561 nM | TGI [21]: 3540 nM | GI50 [22]: 220 nM | TGI [22]: 556 nM | GI50 [23]: 1980 nM | TGI [23]: 5780 nM | GI50 [24]: 355 nM | TGI [24]: 12700 nM | GI50 [25]: 844 nM | TGI [25]: 4390 nM | GI50 [53]: 686 nM | TGI [53]: 2260 nM | GI50 [26]: 441 nM | TGI [26]: 2330 nM | GI50 [27]: 267 nM | TGI [27]: 744 nM | GI50 [28]: 488 nM | TGI [28]: 2660 nM | GI50 [29]: 595 nM | TGI [29]: 5480 nM | GI50 [30]: 209 nM | TGI [30]: 477 nM | GI50 [57]: 2090 nM | TGI [57]: 5420 nM | GI50 [31]: 1370 nM | TGI [31]: 3240 nM | GI50 [32]: 277 nM | TGI [32]: 1080 nM | GI50 [33]: 271 nM | TGI [33]: 760 nM | GI50 [34]: 1790 nM | TGI [34]: 4440 nM | GI50 [35]: 332 nM | TGI [35]: 4010 nM | GI50 [36]: 274 nM | TGI [36]: 969 nM | GI50 [37]: 362 nM | TGI [37]: 3020 nM | GI50 [39]: 2620 nM | TGI [39]: 8920 nM | GI50 [40]: 369 nM | TGI [40]: 1290 nM | GI50 [41]: 408 nM | TGI [41]: 2210 nM | GI50 [42]: 361 nM | TGI [42]: 1690 nM | GI50 [43]: 555 nM | TGI [43]: 2860 nM | GI50 [58]: 2940 nM | TGI [58]: 6570 nM | GI50 [45]: 404 nM | TGI [45]: 2280 nM | GI50 [46]: 1480 nM | TGI [46]: 5580 nM | GI50 [47]: 1670 nM | TGI [47]: 3700 nM | GI50 [48]: 575 nM | TGI [48]: 2290 nM | GI50 [49]: 332 nM | TGI [49]: 1970 nM | GI50 [54]: 1040 nM | TGI [54]: 4520 nM | GI50 [50]: 301 nM | TGI [50]: 828 nM | GI50 [51]: 409 nM | TGI [51]: 2870 nM | GI50 [55]: 410 nM | TGI [55]: 6680 nM

From PubChem BioAssay (NCI)
